Legend:
[1] = test system: barnyardgrass (Echinochloa crus-galli L.); assay: Test Example 1: foliar treatment, growth inhibition rate, barnyardgrass; type: in vivo; conditions: 31 g/ha active ingredient, visually observed 17th to 23rd day after application
Procedure, shortened: (§1)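 Seeds were sown in upland field soil in pots. At the target leaf stage (corn 2.0–3.5; greenfoxtail 1.0–3.0; rice 1.0–2.5; wheat 1.7–3.4), the formulated compound, diluted at a water volume of 500 L/ha with 0.1 vol % spreader, was applied by small sprayer. Plants were rated by eye on days 17–23.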

[2] = test system: crabgrass (Digitaria sanguinalis L.); assay: Test Example 1: foliar treatment, growth inhibition rate, crabgrass; type: in vivo; conditions: 31 g/ha active ingredient, visually observed 17th to 23rd day after application
Procedure, shortened: (§2)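 Visual scoring of growth inhibition, 0% (untreated) to 100% (complete kill), on days 17–23 following post-emergence spray of formulated compound in water (500 L/ha, 0.1 vol % spreader); plants treated at set leaf stages, e.g. corn 2.0–3.5, wheat 1.7–3.4.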

[3] = test system: greenfoxtail (Setaria viridis L.); assay: Test Example 1: foliar treatment, growth inhibition rate, greenfoxtail; type: in vivo; conditions: 31 g/ha active ingredient, visually observed 17th to 23rd day after application
Procedure, shortened: as §1

[4] = test system: redroot pigweed (Amaranthus retroflexus L.); assay: Test Example 1: foliar treatment, growth inhibition rate, redroot pigweed; type: in vivo; conditions: 31 g/ha active ingredient, visually observed 17th to 23rd day after application
Procedure, shortened: as §2

[5] = test system: velvetleaf (Abutilon theophrasti MEDIC.); assay: Test Example 1: foliar treatment, growth inhibition rate, velvetleaf; type: in vivo; conditions: 31 g/ha active ingredient, visually observed 17th to 23rd day after application
Procedure, shortened: as §1

[6] = test system: rice (Oryza sativa L.); assay: Test Example 1: foliar treatment, growth inhibition rate, rice; type: in vivo; conditions: 31 g/ha active ingredient, visually observed 17th to 23rd day after application
Procedure, shortened: as §1

[7] = test system: wheat (Triticum spp.); assay: Test Example 1: foliar treatment, growth inhibition rate, wheat; type: in vivo; conditions: 31 g/ha active ingredient, visually observed 17th to 23rd day after application
Procedure, shortened: as §1

[8] = test system: corn (Zea mays L.); assay: Test Example 1: foliar treatment, growth inhibition rate, corn; type: in vivo; conditions: 31 g/ha active ingredient, visually observed 17th to 23rd day after application
Procedure, shortened: as §1

[9] = test system: soybean (Glycine max Merr.); assay: Test Example 1: foliar treatment, growth inhibition rate, soybean; type: in vivo; conditions: 31 g/ha active ingredient, visually observed 17th to 23rd day after application
Procedure, shortened: as §2

[10] = test system: barnyardgrass; assay: Test Example 2: soil application on the day after sowing, growth inhibition rate, barnyardgrass; type: in vivo, Echinochloa crus-galli L.; conditions: 250 g/ha active ingredient, observed on 19th to 24th day
Excerpt: (§3) Upland field soil was put into a 1/170,000 hectare pot, and seeds of various plants (barnyardgrass, crabgrass, greenfoxtail, redroot pigweed, prickly sida, velvetleaf, rice, wheat, corn and soybean) were sown. On the day after sowing, wettable powders or emulsifiable concentrates of the compounds of the present invention prepared in accordance with a conventional preparation method, were weighed so that the active ingredients became the prescribed amounts, and diluted with water in an amount corresponding to 500 liter per 1 hectare, followed by soil application with a small sprayer. On the 19th to 24th day after the application, the state of growth of the respective plants was visually observed, and the herbicidal effect was evaluated in accordance with a growth inhibition rate (%) of from 0 (equivalent to the non-treated area) to 100% (complete kill).

[11] = test system: crabgrass; assay: Test Example 2: soil application on the day after sowing, growth inhibition rate, crabgrass; type: in vivo, Digitaria sanguinalis L.; conditions: 250 g/ha active ingredient, observed on 19th to 24th day
Procedure, shortened: (§4)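 Pre-emergence soil treatment: one day post-sowing in upland soil, compound formulations at set active-ingredient rates were applied in 500 L/ha water. Visual rating of growth inhibition (0% untreated-equivalent to 100% complete kill) followed on days 19–24 after application.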

[12] = test system: greenfoxtail; assay: Test Example 2: soil application on the day after sowing, growth inhibition rate, greenfoxtail; type: in vivo, Setaria viridis L.; conditions: 250 g/ha active ingredient, observed on 19th to 24th day
Excerpt: as §3

[13] = test system: redroot pigweed; assay: Test Example 2: soil application on the day after sowing, growth inhibition rate, redroot pigweed; type: in vivo, Amaranthus retroflexus L.; conditions: 250 g/ha active ingredient, observed on 19th to 24th day
Procedure, shortened: as §4

[14] = test system: prickly sida; assay: Test Example 2: soil application on the day after sowing, growth inhibition rate, prickly sida; type: in vivo, Sida spinosa L.; conditions: 250 g/ha active ingredient, observed on 19th to 24th day
Excerpt: as §3

[15] = test system: velvetleaf; assay: Test Example 2: soil application on the day after sowing, growth inhibition rate, velvetleaf; type: in vivo, Abutilon theophrasti MEDIC.; conditions: 250 g/ha active ingredient, observed on 19th to 24th day
Procedure, shortened: as §4

[16] = test system: rice; assay: Test Example 2: soil application on the day after sowing, growth inhibition rate, rice; type: in vivo, Oryza sativa L.; conditions: 250 g/ha active ingredient, observed on 19th to 24th day
Excerpt: as §3

[17] = test system: wheat; assay: Test Example 2: soil application on the day after sowing, growth inhibition rate, wheat; type: in vivo, Triticum spp.; conditions: 250 g/ha active ingredient, observed on 19th to 24th day
Excerpt: as §3

[18] = test system: corn; assay: Test Example 2: soil application on the day after sowing, growth inhibition rate, corn; type: in vivo, Zea mays L.; conditions: 250 g/ha active ingredient, observed on 19th to 24th day
Procedure, shortened: as §4

[19] = test system: soybean; assay: Test Example 2: soil application on the day after sowing, growth inhibition rate, soybean; type: in vivo, Glycine max Merr.; conditions: 250 g/ha active ingredient, observed on 19th to 24th day
Excerpt: as §3

[20] = test system: prickly sida (Sida spinosa L.); assay: Test Example 1: foliar treatment, growth inhibition rate, prickly sida; type: in vivo; conditions: 31 g/ha active ingredient, visually observed 17th to 23rd day after application
Procedure, shortened: as §2

Row | SMILES | Growth inhibition rate (%) redroot pigweed [4] [%] | Growth inhibition rate (%) Soybean [9] [%] | Growth inhibition rate (%) Barnyardgrass [1] [%] | Growth inhibition rate (%) Crabgrass [2] [%] | Growth inhibition rate (%) Greenfoxtail [3] [%] | Growth inhibition rate (%) Prickly sida [20] [%] | Growth inhibition rate (%) Velvetleaf [5] [%] | Growth inhibition rate (%) Rice [6] [%] | Growth inhibition rate (%) Wheat [7] [%] | Growth inhibition rate (%) Corn [8] [%] | Growth inhibition rate (%) Barnyardgrass [10] [%] | Growth inhibition rate (%) Crabgrass [11] [%] | Growth inhibition rate (%) Greenfoxtail [12] [%] | Growth inhibition rate (%) redroot pigweed [13] [%] | Growth inhibition rate (%) Prickly sida [14] [%] | Growth inhibition rate (%) Velvetleaf [15] [%] | Growth inhibition rate (%) Rice [16] [%] | Growth inhibition rate (%) Wheat [17] [%] | Growth inhibition rate (%) Corn [18] [%] | Growth inhibition rate (%) Soybean [19] [%] | also measured
1 | CCSC(=O)Oc1c(C(=O)c2ccc(S(C)(=O)=O)c(C3=NOCC3)c2C)cnn1C [Compound No. 39, 5-(ethylthio)carbonyloxy-1-methylpyrazol-4-yl 2-methyl-4-(methylsulfonyl)-3-(4,5-dihydroisoxazol-3-yl)phenyl ketone] | 80 | 95 | – | – | – | – | – | – | – | – | – | – | – | – | – | – | – | – | – | – | pest or weed control at 31 g/ha ([1]; Echinochloa crus-galli): 95%; pest or weed control at 31 g/ha ([2]; Digitaria sanguinalis): 90%; pest or weed control at 31 g/ha ([3]; Setaria viridis): 95%; pest or weed control at 31 g/ha ([5]; Abutilon theophrasti): 90%; pest or weed control at 31 g/ha ([6]; Oryza sativa): 95%; pest or weed control at 31 g/ha ([7]; Triticum): 40%; pest or weed control at 31 g/ha ([8]; Zea mays): 0%; inhibition at 250 g/ha ([10]; Echinochloa crus-galli): 70%; inhibition at 250 g/ha ([11]; Digitaria sanguinalis): 100%; inhibition at 250 g/ha ([12]; Setaria viridis): 80%; inhibition at 250 g/ha ([13]; Amaranthus retroflexus): 100%; inhibition at 250 g/ha ([14]; Sida spinosa): 70%; inhibition at 250 g/ha ([15]; Abutilon theophrasti): 60%; inhibition at 250 g/ha ([16]; Oryza sativa): 80%; inhibition at 250 g/ha ([17]; Triticum aestivum): 0%; inhibition at 250 g/ha ([18]; Zea mays): 10%; inhibition at 250 g/ha ([19]; Glycine max): 0%
2 | CCn1ncc(C(=O)c2ccc(S(C)(=O)=O)c(C(=O)OC)c2C)c1OC(=O)SC [compound 4] | – | 95 | 95 | 95 | 100 | 80 | 95 | 100 | 50 | 5 | 80 | 100 | 70 | 100 | 70 | 60 | 70 | 0 | 0 | 50 | –
3 | COC(=O)c1c(S(C)(=O)=O)ccc(C(=O)c2cnn(C)c2OC(=O)SC)c1Cl [compound 29] | 70 | 60 | 80 | 50 | 50 | 60 | 65 | 40 | 0 | 10 | 50 | 10 | 40 | – | 60 | 50 | 10 | 0 | 0 | 40 | –
4 | CCSC(=O)Oc1c(C(=O)c2ccc(S(C)(=O)=O)c(COCC(F)(F)F)c2C)cnn1C [compound 69] | 85 | 98 | 95 | 98 | 95 | 70 | 95 | 80 | 0 | 50 | 70 | 95 | 50 | 100 | 70 | 70 | 70 | 0 | 0 | – | –
5 | CCSC(=O)Oc1c(C(=O)c2ccc(S(C)(=O)=O)c(OCC3CCCCO3)c2C)cnn1C (centres unmarked) [compound 215] | 95 | 95 | 100 | 60 | 70 | 50 | 50 | 70 | 0 | 30 | 90 | 95 | 70 | 60 | 40 | 0 | 90 | 0 | 0 | – | –
